Test results: article PMC9476706, “Integrating pharmacokinetics and network analysis to investigate the mechanism of Moutan Cortex in blood-heat and blood stasis syndrome” (Chinese Medicine, 2022)

tested on: AKT; test: AKT expression in TNF-α induced HUVECs (RT-qPCR); format: cell-based, Human; settings: HUVECs + 25 ng/mL TNF-α, 8 h, oxypaeoniflorin 500 μg/mL, versus model group
Protocol: (§1) After three or four passages, the HUVECs were digested with 0.25% trypsin and seeded in a 6-well plate with a density of 1 × 10^5 cells/mL for ELISA analysis and RT-qPCR. […] Afterwards, take the supernatant and measure according to the ELISA kit, and detect the OD value at the wavelength of 450. […] ChamQTMUniversalSYBR qPCR Master Mix (Vazyme Biotech Co., Ltd, Q711-02) was performed on a Real-time PCR System.

Row | Compound | expression of AKT
1 | oxypaeoniflorin | could decrease

tested on: F7; test: F7 expression in TNF-α induced HUVECs (ELISA, RT-qPCR); format: cell-based, Human; settings: HUVECs + 25 ng/mL TNF-α, 8 h; paeonol 50 μg/mL; RT-qPCR; versus model group
Protocol: as §1

Row | Compound | F7 mRNA expression
2 | COc1ccc(C(C)=O)c(O)c1 [Paeonol, paeonol] | no effects

same assay, conditions: HUVECs + 25 ng/mL TNF-α, 8 h; paeonol 50, paeoniflorin 500, quercetin 1, oxypaeoniflorin 500 μg/mL; versus model group

Row | Compound | F7 protein expression
3 | C[C@@]12C[C@@]3(O)O[C@@H](O1)[C@]1(COC(=O)c4ccccc4)[C@H]3C[C@@]12O[C@@H]1O[C@H](CO)[C@@H](O)[C@H](O)[C@H]1O [Paeoniflorin, paeoniflorin] | significantly declined
4 | COc1ccc(C(C)=O)c(O)c1 [Paeonol, paeonol] | significantly declined
5 | O=c1c(O)c(-c2ccc(O)c(O)c2)oc2cc(O)cc(O)c12 [Quercetin, quercetin] | significantly declined
6 | oxypaeoniflorin | significantly declined

tested on: F10; test: F10 expression in TNF-α induced HUVECs (ELISA, RT-qPCR); format: cell-based, Human; settings: HUVECs + 25 ng/mL TNF-α, 8 h; paeonol 50, paeoniflorin 500, quercetin 1, oxypaeoniflorin 500 μg/mL; versus model group
Protocol: as §1

Row | Compound | F10 protein expression
7 | C[C@@]12C[C@@]3(O)O[C@@H](O1)[C@]1(COC(=O)c4ccccc4)[C@H]3C[C@@]12O[C@@H]1O[C@H](CO)[C@@H](O)[C@H](O)[C@H]1O [Paeoniflorin, paeoniflorin] | significantly declined
8 | COc1ccc(C(C)=O)c(O)c1 [Paeonol, paeonol] | significantly declined
9 | O=c1c(O)c(-c2ccc(O)c(O)c2)oc2cc(O)cc(O)c12 [Quercetin, quercetin] | significantly declined
10 | oxypaeoniflorin | significantly declined

tested on: F2; test: F2 expression in TNF-α induced HUVECs (ELISA, RT-qPCR); format: cell-based, Human; settings: HUVECs + 25 ng/mL TNF-α, 8 h; paeonol 50 μg/mL; RT-qPCR; versus model group
Protocol: as §1

Row | Compound | F2 mRNA expression
11 | COc1ccc(C(C)=O)c(O)c1 [Paeonol, paeonol] | no effects

same assay, conditions: HUVECs + 25 ng/mL TNF-α, 8 h; paeonol 50, paeoniflorin 500, quercetin 1, oxypaeoniflorin 500 μg/mL; versus model group

Row | Compound | F2 protein expression
12 | C[C@@]12C[C@@]3(O)O[C@@H](O1)[C@]1(COC(=O)c4ccccc4)[C@H]3C[C@@]12O[C@@H]1O[C@H](CO)[C@@H](O)[C@H](O)[C@H]1O [Paeoniflorin, paeoniflorin] | significantly declined
13 | COc1ccc(C(C)=O)c(O)c1 [Paeonol, paeonol] | significantly declined
14 | O=c1c(O)c(-c2ccc(O)c(O)c2)oc2cc(O)cc(O)c12 [Quercetin, quercetin] | significantly declined

tested on: not listed separately; test: Pharmacokinetic study of nine absorbed components in rat serum after oral RMC extract (UHPLC-DAD); settings: BHS-RMC rats, oral RMC extract;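 further: BHS model made by subcutaneous yeast suspension then two adrenaline injections with ice-water immersion, normal rats given saline instead, serum analytes quantified by UHPLC-DAD at 254 nm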
Protocol: Twenty-four male Sprague–Dawley rats (weighing 300 ± 20 g) were purchased from Animal Experiment Center, Guangdong Academy of Medical Sciences (Certificate no. SCXK2013-0002). The rats were kept in an environmentally controlled breeding room at a temperature of 22 ± 2 °C and a relative humidity of 55 ± 10% for 1 week before starting the experiments. They were fed with standard laboratory food and water. Both the animal’s care and the study protocol were conducted according to the National Institutes of Health Guide for the Care and Use of Laboratory Animals, and followed the guidelines of the Ethics Committee of Guangdong Pharmaceutical University.
The rats were randomly divided into following four groups: normal groups (Normal groups), BHS model groups (BHS groups), normal group administrated with RMC extraction (N-RMC group), BHS group administrated with RMC extraction (BHS-RMC group), respectively. N-RMC group and BHS-RMC group rats were respectively orally administrated with RMC extraction (equal to 6 g/mL of RMC) for continuous 7 days at a dose of 10 mL/kg, once a day, 1 hour after the sixth day of administration. The rats in BHS groups and BHS-RMC group were subcutaneously injected with 10% aqueous suspension of yeast (10 mL/kg) and then subcutaneously injected with 0.1 mg/mL adrenaline hydrochloride solution twice (at a dose of 0.8 mL/kg, 4 h apart) while body temperature remained relatively steady high. Those rats were soaked in ice-water for 5 min keeping their heads outside surface between two subcutaneous injections of adrenaline hydrochloride solution [39, 40]. At the same time, the normal groups and N-RMC group rats were injected with the same dose of saline (10 mL/kg) subcutaneously. All rats were fasted for 12 h but free for water before taking the blood. On the seventh day, 0.3 mL blood samples were collected from fossa orbitalis vein at the time point of 0.083, 0.25, 0.5, 0.75, 1, 2, 3, 4, 6, 8, 10, 12 and 24 h after oral administration. All blood samples were immediately centrifuged at 13,680 (× g) for 10 min at 4 °C and the serum samples were obtained and stored at −80 °C until analysis.
Firstly, 100 μL serum was spiked with 10 μL IS working solution to mix evenly, then 1 mL methanol was added to protein precipitation, and centrifuged at 1520 (× g) for 10 min at 4 °C. Secondly, the supernatant was collected with a clean tube carefully and filtered through 0.22 μm microporous filter head. Thirdly, the filtrate was evaporated to dryness under a stream of nitrogen at 40 °C. Finally, the residue was dissolved in 100 μL methanol and 10 μL of aliquot was injected into UHPLC-DAD system for analysis.
The chromatography experiment was carried out using UPLC system (Thermo Fisher Scientific, USA). Chromatographic conditions were according to the paper published by our research group [37]. Column: Acquity UPLC® BEH Shield RP18 Column (2.1 mm × 100 mm, 1.7 μm, Waters, USA). The column temperature was maintained at 30 °C. Mobile phase: Acetonitrile (A) and 0.1% (v/v) formic acid in water (B). The gradient conditions: 0–10 min, 5–15% A; 10–20 min, 15–35% A; 20–30 min, 35–95% A; 30–32 min, 95% A. The samples were kept at 4 °C in the auto-sampler. Flow rate and sample size, 0.2 mL/min and 2 μL; column temperature and detection wavelength, 30 °C and 254 nm.
The concentrations of nine components of all samples were processed by PKSolver pharmacokinetics software. Statistical comparisons among groups were performed with GraphPad Prism 8 using a One-Way ANOVA analysis. Data expressed as mean ± SD and a p value ≤ 0.05 was considered to be statistically significant.

Row | Compound | time after which the compound was not detected [h]
15 | C[C@@]12C[C@@]3(O)O[C@@H](O1)[C@]1(COC(=O)c4ccccc4)[C@H]3C[C@@]12O[C@@H]1O[C@H](CO)[C@@H](O)[C@H](O)[C@H]1O [Paeoniflorin, paeoniflorin] | 12
16 | COc1ccc(C(C)=O)c(O)c1 [Paeonol, paeonol] | 8

same assay, conditions: BHS-RMC versus N-RMC rats, oral RMC extract

Row | Compound | Cmax increase in BHS-RMC over N-RMC [%]
17 | O=c1c(O)c(-c2ccc(O)c(O)c2)oc2cc(O)cc(O)c12 [Quercetin, quercetin] | 15

same assay, conditions: male, Sprague-Dawley, rat, serum, po, 10 mL/kg, AUC, BHS-RMC group (BHS model rats), serum, oral RMC extract 10 mL/kg (equal to 6 g/mL of RMC) once a day for 7 days, n = 6

Row | Compound | AUC [µg·h/mL]
18 | C[C@@]12C[C@@]3(O)O[C@@H](O1)[C@]1(COC(=O)c4ccccc4)[C@H]3C[C@@]12O[C@@H]1O[C@H](CO)[C@@H](O)[C@H](O)[C@H]1O [Paeoniflorin, paeoniflorin] | 298 ± 7.6
19 | COc1ccc(C(C)=O)c(O)c1 [Paeonol, paeonol] | 45.5 ± 0.83
20 | O=c1c(O)c(-c2ccc(O)c(O)c2)oc2cc(O)cc(O)c12 [Quercetin, quercetin] | 10000

same assay, conditions: male, Sprague-Dawley, rat, serum, po, 10 mL/kg, AUC, N-RMC group (normal rats), serum, oral RMC extract 10 mL/kg (equal to 6 g/mL of RMC) once a day for 7 days, n = 6

Row | Compound | AUC [µg·h/mL]
21 | C[C@@]12C[C@@]3(O)O[C@@H](O1)[C@]1(COC(=O)c4ccccc4)[C@H]3C[C@@]12O[C@@H]1O[C@H](CO)[C@@H](O)[C@H](O)[C@H]1O [Paeoniflorin, paeoniflorin] | 1450 ± 62.3
22 | COc1ccc(C(C)=O)c(O)c1 [Paeonol, paeonol] | 107 ± 1.23
23 | O=c1c(O)c(-c2ccc(O)c(O)c2)oc2cc(O)cc(O)c12 [Quercetin, quercetin] | 7340 ± 166

same assay, conditions: male, Sprague-Dawley, rat, serum, po, 10 mL/kg, Cmax, BHS-RMC group (BHS model rats), serum, oral RMC extract 10 mL/kg (equal to 6 g/mL of RMC) once a day for 7 days, n = 6

Row | Compound | Cmax [µg/mL]
24 | C[C@@]12C[C@@]3(O)O[C@@H](O1)[C@]1(COC(=O)c4ccccc4)[C@H]3C[C@@]12O[C@@H]1O[C@H](CO)[C@@H](O)[C@H](O)[C@H]1O [Paeoniflorin, paeoniflorin] | 84.2 ± 1.99
25 | COc1ccc(C(C)=O)c(O)c1 [Paeonol, paeonol] | 10.4 ± 0.23
26 | O=c1c(O)c(-c2ccc(O)c(O)c2)oc2cc(O)cc(O)c12 [Quercetin, quercetin] | 739.9 ± 4.17

same assay, conditions: male, Sprague-Dawley, rat, serum, po, 10 mL/kg, Cmax, N-RMC group (normal rats), serum, oral RMC extract 10 mL/kg (equal to 6 g/mL of RMC) once a day for 7 days, n = 6

Row | Compound | Cmax [µg/mL]
27 | C[C@@]12C[C@@]3(O)O[C@@H](O1)[C@]1(COC(=O)c4ccccc4)[C@H]3C[C@@]12O[C@@H]1O[C@H](CO)[C@@H](O)[C@H](O)[C@H]1O [Paeoniflorin, paeoniflorin] | 201.6 ± 1.86
28 | COc1ccc(C(C)=O)c(O)c1 [Paeonol, paeonol] | 11.8 ± 0.13
29 | O=c1c(O)c(-c2ccc(O)c(O)c2)oc2cc(O)cc(O)c12 [Quercetin, quercetin] | 643 ± 19.8

same assay, conditions: male, Sprague-Dawley, rat, serum, po, 10 mL/kg, MRT, BHS-RMC group (BHS model rats), serum, oral RMC extract 10 mL/kg (equal to 6 g/mL of RMC) once a day for 7 days, n = 6

Row | Compound | MRT [h]
30 | C[C@@]12C[C@@]3(O)O[C@@H](O1)[C@]1(COC(=O)c4ccccc4)[C@H]3C[C@@]12O[C@@H]1O[C@H](CO)[C@@H](O)[C@H](O)[C@H]1O [Paeoniflorin, paeoniflorin] | 5.06 ± 0.22
31 | COc1ccc(C(C)=O)c(O)c1 [Paeonol, paeonol] | 4.63 ± 0.12
32 | O=c1c(O)c(-c2ccc(O)c(O)c2)oc2cc(O)cc(O)c12 [Quercetin, quercetin] | 20.4 ± 0.66

same assay, conditions: male, Sprague-Dawley, rat, serum, po, 10 mL/kg, MRT, N-RMC group (normal rats), serum, oral RMC extract 10 mL/kg (equal to 6 g/mL of RMC) once a day for 7 days, n = 6

Row | Compound | MRT [h]
33 | C[C@@]12C[C@@]3(O)O[C@@H](O1)[C@]1(COC(=O)c4ccccc4)[C@H]3C[C@@]12O[C@@H]1O[C@H](CO)[C@@H](O)[C@H](O)[C@H]1O [Paeoniflorin, paeoniflorin] | 15.5 ± 0.94
34 | COc1ccc(C(C)=O)c(O)c1 [Paeonol, paeonol] | 12.1 ± 0.17
35 | O=c1c(O)c(-c2ccc(O)c(O)c2)oc2cc(O)cc(O)c12 [Quercetin, quercetin] | 16.6 ± 0.56

same assay, conditions: male, Sprague-Dawley, rat, serum, po, 10 mL/kg, T1/2, BHS-RMC group (BHS model rats), serum, oral RMC extract 10 mL/kg (equal to 6 g/mL of RMC) once a day for 7 days, n = 6

Row | Compound | half-life [h]
36 | C[C@@]12C[C@@]3(O)O[C@@H](O1)[C@]1(COC(=O)c4ccccc4)[C@H]3C[C@@]12O[C@@H]1O[C@H](CO)[C@@H](O)[C@H](O)[C@H]1O [Paeoniflorin, paeoniflorin] | 3.6 ± 0.31
37 | COc1ccc(C(C)=O)c(O)c1 [Paeonol, paeonol] | 4.37 ± 0.15
38 | O=c1c(O)c(-c2ccc(O)c(O)c2)oc2cc(O)cc(O)c12 [Quercetin, quercetin] | 15.5 ± 0.54

same assay, conditions: male, Sprague-Dawley, rat, serum, po, 10 mL/kg, T1/2, N-RMC group (normal rats), serum, oral RMC extract 10 mL/kg (equal to 6 g/mL of RMC) once a day for 7 days, n = 6

Row | Compound | half-life [h]
39 | C[C@@]12C[C@@]3(O)O[C@@H](O1)[C@]1(COC(=O)c4ccccc4)[C@H]3C[C@@]12O[C@@H]1O[C@H](CO)[C@@H](O)[C@H](O)[C@H]1O [Paeoniflorin, paeoniflorin] | 9.75 ± 0.47
40 | COc1ccc(C(C)=O)c(O)c1 [Paeonol, paeonol] | 7.84 ± 0.08
41 | O=c1c(O)c(-c2ccc(O)c(O)c2)oc2cc(O)cc(O)c12 [Quercetin, quercetin] | 9.97 ± 0.35

same assay, conditions: male, Sprague-Dawley, rat, serum, po, 10 mL/kg, Tmax, BHS-RMC group (BHS model rats), serum, oral RMC extract 10 mL/kg (equal to 6 g/mL of RMC) once a day for 7 days, n = 6

Row | Compound | Tmax [h]
42 | C[C@@]12C[C@@]3(O)O[C@@H](O1)[C@]1(COC(=O)c4ccccc4)[C@H]3C[C@@]12O[C@@H]1O[C@H](CO)[C@@H](O)[C@H](O)[C@H]1O [Paeoniflorin, paeoniflorin] | 0.75
43 | COc1ccc(C(C)=O)c(O)c1 [Paeonol, paeonol] | 0.75
44 | O=c1c(O)c(-c2ccc(O)c(O)c2)oc2cc(O)cc(O)c12 [Quercetin, quercetin] | 4

same assay, conditions: male, Sprague-Dawley, rat, serum, po, 10 mL/kg, Tmax, N-RMC group (normal rats), serum, oral RMC extract 10 mL/kg (equal to 6 g/mL of RMC) once a day for 7 days, n = 6

Row | Compound | Tmax [h]
45 | COc1ccc(C(C)=O)c(O)c1 [Paeonol, paeonol] | 0.75
46 | O=c1c(O)c(-c2ccc(O)c(O)c2)oc2cc(O)cc(O)c12 [Quercetin, quercetin] | 4

same assay, conditions: oral RMC extract, both normal and model rats

Row | Compound | shape of plasma concentration-time profile
47 | COc1ccc(C(C)=O)c(O)c1 [Paeonol, paeonol] | bimodal (double peak) phenomenon

tested on: APTT, PT and TT; test: Coagulation test (APTT, PT, TT) in rabbit plasma; settings: 10 μL solution, paeoniflorin 250, oxypaeoniflorin 500, quercetin 1, paeonol 50 μg/mL, blank 13.63 ± 0.49, n = 3
Protocol: New Zealand white rabbits, after being fasted but with free access to water for 8 h, were anesthetized by intraperitoneal injection of 10.0% chloral hydrate at 0.3 mL/100 g. The blood collected from the carotid artery was anticoagulated with 3.8% sodium citrate (blood and dosage volume ratio of 9:1), and transferred to a vacuum blood-collection tube, which was then slowly inverted and mixed for 3 to 4 times, and centrifuged at 860 (× g) for 10 min to obtain the supernatant. […] Whereafter, 10 μL of monomer solution was added under the kit instructions to determine APTT, PT and TT using coagulation method.

Row | Compound | APTT [s]
48 | C[C@@]12C[C@@]3(O)O[C@@H](O1)[C@]1(COC(=O)c4ccccc4)[C@H]3C[C@@]12O[C@@H]1O[C@H](CO)[C@@H](O)[C@H](O)[C@H]1O [Paeoniflorin, paeoniflorin] | 15.07 ± 0.06
49 | COc1ccc(C(C)=O)c(O)c1 [Paeonol, paeonol] | 17.23 ± 0.35
50 | O=c1c(O)c(-c2ccc(O)c(O)c2)oc2cc(O)cc(O)c12 [Quercetin, quercetin] | 15.2 ± 0.387
51 | oxypaeoniflorin | 15.63 ± 0.45

same assay, conditions: in words

Row | Compound | effect on PT compared with blank | effect on TT compared with blank | effect on prolonging APTT compared with blank
52 | C[C@@]12C[C@@]3(O)O[C@@H](O1)[C@]1(COC(=O)c4ccccc4)[C@H]3C[C@@]12O[C@@H]1O[C@H](CO)[C@@H](O)[C@H](O)[C@H]1O [Paeoniflorin, paeoniflorin] | no significant difference | tendency of prolonging | significant effect
53 | COc1ccc(C(C)=O)c(O)c1 [Paeonol, paeonol] | no significant difference | tendency of prolonging | significant effect
54 | O=c1c(O)c(-c2ccc(O)c(O)c2)oc2cc(O)cc(O)c12 [Quercetin, quercetin] | no significant difference | tendency of prolonging | significant effect
55 | oxypaeoniflorin | no significant difference | tendency of prolonging | significant effect

tested on: MAPK10; test: MAPK10 mRNA expression in TNF-α induced HUVECs (RT-qPCR); format: cell-based, Human; settings: HUVECs + 25 ng/mL TNF-α, 8 h, paeonol 50, paeoniflorin 500, quercetin 1, oxypaeoniflorin 500 μg/mL, versus model group
Protocol: as §1

Row | Compound | MAPK10 mRNA expression
56 | C[C@@]12C[C@@]3(O)O[C@@H](O1)[C@]1(COC(=O)c4ccccc4)[C@H]3C[C@@]12O[C@@H]1O[C@H](CO)[C@@H](O)[C@H](O)[C@H]1O [Paeoniflorin, paeoniflorin] | significant decrease
57 | COc1ccc(C(C)=O)c(O)c1 [Paeonol, paeonol] | significant decrease
58 | O=c1c(O)c(-c2ccc(O)c(O)c2)oc2cc(O)cc(O)c12 [Quercetin, quercetin] | significant decrease
59 | oxypaeoniflorin | significant decrease
